21 compounds from patent US7566712B2, “Biaryl piperazinyl-pyridine analogues” (Neurogen Corporation, priority 2003, dated 2009) can be followed below.

For this experiment, the target named is T1, human capsaicin receptor (Homo sapiens, UniProt Q8NER1).
T1 construct: pBK-CMV expression construct encoding the full length human capsaicin receptor; expressed in transfected cells
As to the kind of experiment: Calcium mobilization assay, determination of antagonist activity (Example 6). Format: cell-based. The following applies: Table II. The method, boiled down: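 Antagonism measured as inhibition of capsaicin-evoked (final concentration = EC50, from an 8-point 1 nM–3 μM curve) Fluo-3 calcium signal in stable hVR1-HEK293 cells. Test compounds at 1–5 μM final, 0.5–6 h dark preincubation at room temperature. IC50 = concentration giving 50% reduction versus agonist-only response.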
In general terms: A change in cytosolic calcium serves as a functional read-out for many receptors and channels.

Where [1] appears, read: determined as described in Example 6 (calcium mobilization, antagonist activity).
Setting [2] is: determined as described in Example 6 (antagonist activity), "*" = 1 micromolar or less.

T1 sequence (Q8NER1 whole entry): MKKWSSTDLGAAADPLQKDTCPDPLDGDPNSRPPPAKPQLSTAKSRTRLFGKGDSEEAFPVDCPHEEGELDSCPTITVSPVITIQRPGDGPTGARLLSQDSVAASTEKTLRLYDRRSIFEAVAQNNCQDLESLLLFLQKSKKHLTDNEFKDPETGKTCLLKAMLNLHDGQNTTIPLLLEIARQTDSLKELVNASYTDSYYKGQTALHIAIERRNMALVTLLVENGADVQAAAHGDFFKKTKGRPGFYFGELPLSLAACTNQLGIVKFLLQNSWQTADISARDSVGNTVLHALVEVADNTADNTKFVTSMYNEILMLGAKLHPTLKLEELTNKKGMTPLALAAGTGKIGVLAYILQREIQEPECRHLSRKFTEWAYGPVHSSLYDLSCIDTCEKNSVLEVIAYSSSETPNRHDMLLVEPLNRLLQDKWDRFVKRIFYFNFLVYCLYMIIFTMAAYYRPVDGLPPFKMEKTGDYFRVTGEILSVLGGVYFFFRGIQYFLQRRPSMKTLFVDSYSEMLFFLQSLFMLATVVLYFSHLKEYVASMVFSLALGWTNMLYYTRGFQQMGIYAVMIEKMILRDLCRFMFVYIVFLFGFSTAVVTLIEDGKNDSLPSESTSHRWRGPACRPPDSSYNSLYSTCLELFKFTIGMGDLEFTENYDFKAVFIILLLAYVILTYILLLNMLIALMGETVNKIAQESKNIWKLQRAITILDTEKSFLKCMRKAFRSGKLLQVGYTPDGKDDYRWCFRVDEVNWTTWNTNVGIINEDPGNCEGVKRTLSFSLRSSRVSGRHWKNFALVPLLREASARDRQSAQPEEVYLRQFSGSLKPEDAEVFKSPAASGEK

The IC50 is the midpoint of a concentration-inhibition curve. `CCC(C)N(C)c1nc(-c2ccc(F)c(C)c2)cc(N2CCN(c3ncccc3C(F)(F)F)CC2)n1` (stereo not drawn) [Example 757, N-(sec-butyl)-4-(4-fluoro-3-methylphenyl)-N-methyl-6-{4-[3-(trifluoromethyl)pyridin-2-yl]piperazin-1-yl}pyrimidin-2-amine]: the IC50 under setting [1] is at most 1 µM.

Consider `CC(CO)N(C)c1nc(-c2ccc(F)c(Cl)c2)cc(N2CCN(c3ncccc3C(F)(F)F)CC2)n1` (stereo not drawn) [Example 758, 2-[(4-(3-chloro-4-fluorophenyl)-6-{4-[3-(trifluoromethyl)pyridin-2-yl]piperazin-1-yl}pyrimidin-2-yl)(methyl)amino]propan-1-ol], for which the IC50 under setting [1] was at most 1 µM.

Regarding `Cc1cc(-c2cc(N3CCN(c4ncccc4C(F)(F)F)C[C@H]3C)nc(N3CCCCC3)n2)ccc1F` [Example 759, 4-(4-fluoro-3-methylphenyl)-6-{(2R)-2-methyl-4-[3-(trifluoromethyl)pyridin-2-yl]piperazin-1-yl}-2-piperidin-1-ylpyrimidine], the IC50 under setting [1] is at most 1 µM.

For the compound `COC[C@@H]1CCCN1c1nc(-c2ccc(F)c(C)c2)cc(N2CCN(c3ncccc3C(F)(F)F)C[C@H]2C)n1` [Example 760, 4-(4-fluoro-3-methylphenyl)-2-[(2S)-2-(methoxymethyl)pyrrolidin-1-yl]-6-{(2R)-2-methyl-4-[3-(trifluoromethyl)pyridin-2-yl]piperazin-1-yl}pyrimidine], the IC50 under setting [1] is at most 1 µM.

For the compound `COC[C@H]1CCCN1c1nc(-c2ccc(F)c(C)c2)cc(N2CCN(c3ncccc3C(F)(F)F)C[C@H]2C)n1` [Example 761, 4-(4-fluoro-3-methylphenyl)-2-[(2R)-2-(methoxymethyl)pyrrolidin-1-yl]-6-{(2R)-2-methyl-4-[3-(trifluoromethyl)pyridin-2-yl]piperazin-1-yl}pyrimidine], the IC50 under setting [1] was at most 1 µM.

Take `Cc1cc(-c2cc(N3CCN(c4ncccc4C(F)(F)F)C[C@H]3C)nc(N(C)C(C)C)n2)ccc1F` [Example 762, 4-(4-fluoro-3-methylphenyl)-N-isopropyl-N-methyl-6-{(2R)-2-methyl-4-[3-(trifluoromethyl)pyridin-2-yl]piperazin-1-yl}pyrimidin-2-amine]: under setting [1], the IC50 was at most 1 µM.

`C[C@@H]1CN(c2ncccc2C(F)(F)F)CCN1c1cc(-c2ccc(F)c(Cl)c2)nc(N2CCCC2)n1` [Example 763, 4-(3-chloro-4-fluorophenyl)-6-{(2R)-2-methyl-4-[3-(trifluoromethyl)pyridin-2-yl]piperazin-1-yl}-2-pyrrolidin-1-ylpyrimidine]: the IC50 under setting [1] was at most 1 µM.

`CC1CCCN1c1nc(-c2ccc(F)c(Cl)c2)cc(N2CCN(c3ncccc3C(F)(F)F)C[C@H]2C)n1` (stereo partly drawn) [Example 764, 4-(3-chloro-4-fluorophenyl)-2-(2-methylpyrrolidin-1-yl)-6-{(2R)-2-methyl-4-[3-(trifluoromethyl)pyridin-2-yl]piperazin-1-yl}pyrimidine]: under setting [1], the IC50 is at most 1 µM.

Turning to `C[C@@H]1CN(c2ncccc2C(F)(F)F)CCN1c1cc(-c2ccc(F)c(Cl)c2)nc(N2CCCCC2)n1` [Example 765, 4-(3-chloro-4-fluorophenyl)-6-{(2R)-2-methyt-4-[3-(trifluoromethyl)pyridin-2-yl]piperazin-1-yl}-2-piperidin-1-ylpyrimidine], the IC50 under setting [1] was at most 1 µM.

As for `Cc1cc(-c2cc(N3CCN(c4ncccc4C(F)(F)F)CC3)nc(N3CCC3(C)C)n2)ccc1F` [Example 766, 2-(2,2-dimethylazetidin-1-yl)-4-(4-fluoro-3-methylphenyl)-6-{4-[3-(trifluoromethyl)pyridin-2-yl]piperazin-1-yl}pyrimidine], under setting [1], the IC50 is at most 1 µM.

Regarding `C[C@@H]1CN(c2ncccc2Cl)CCN1c1cc(-c2ccc(F)c(F)c2)nc(N2CCCC2)n1` [Example 767, 4-[(2R)-4-(3-chloropyridin-2-yl)-2-methylpiperazin-1-yl]-6-(3,4-difluorophenyl)-2-pyrrolidin-1-ylpyrimidine], under setting [1], the IC50 was at most 1 µM.

Consider `CC1CCCN1c1nc(-c2ccc(F)c(F)c2)cc(N2CCN(c3ncccc3Cl)C[C@H]2C)n1` (stereo partly drawn) [Example 768, 4-[(2R)-4-(3-chloropyridin-2-yl)-2-methylpiperazin-1-yl]-6-(3,4-difluorophenyl)-2-(2-methylpyrrolidin-1-yl)pyrimidine], for which the 50% inhibitory concentration (IC50) under setting [1] is at most 1 µM.

With `C[C@@H]1CN(c2ncccc2Cl)CCN1c1cc(-c2ccc(F)c(F)c2)nc(N2CCCCC2)n1` [Example 769, 4-{(2R)-4-(3-chloropyridin-2-yl)-2-methylpiperazin-1-yl]-6-(3,4-difluorophenyl)-2-piperidin-1-ylpyrimidine], the IC50 under setting [1] is at most 1 µM.

Regarding `Cc1cc(-c2cc(N3CCN(c4ncccc4C(F)(F)F)C[C@H]3C)nc(N3CCCCC3C)n2)ccc1F` (stereo partly drawn) [Example 770, 4-(4-fluoro-3-methylphenyl)-2-(2-methylpiperidin-1-yl)-6-{(2R)-2-methyl-4-[3-(trifluoromethyl)pyridin-2-yl]piperazin-1-yl}pyrimidine], the IC50 under setting [1] is at most 1 µM.

As for `CC1CCCCN1c1nc(-c2ccc(F)c(F)c2)cc(N2CCN(c3ncccc3Cl)C[C@H]2C)n1` (stereo partly drawn) [Example 771, 4-[(2R)-4-(3-chloropyridin-2-yl)-2-methylpiperazin-1-yl]-6-(3,4-difluorophenyl)-2-(2-methylpiperidin-1-yl)pyrimidine], under setting [1], the IC50 was at most 1 µM.

On to `O[C@H]1CCN(c2nc(-c3ccc(F)c(Cl)c3)cc(N3CCN(c4ncccc4C(F)(F)F)CC3)n2)C1` [Example 772, (3S)-1-(4-(3-chloro-4-fluorophenyl)-6-{4-[3-(trifluoromethyl)pyridin-2-yl]piperazin-1-yl}pyrimidin-2-yl)pyrrolidin-3-oI], for which the IC50 under setting [2] was at most 1 µM.

Regarding `OC1CN(c2nc(-c3ccc(F)c(Cl)c3)cc(N3CCN(c4ncccc4C(F)(F)F)CC3)n2)C1` [Example 774, 1-(4-(3-chloro-4-fluorophenyl)-6-{4-[3-(trifluoromethyl)pyridin-2-yl]piperazin-1-yl}pyrimidin-2-yl)azetidin-3-ol], the IC50 under setting [2] is at most 1 µM.

As for `Fc1ccc(-c2cc(N3CCN(c4ncccc4C(F)(F)F)CC3)nc(N3C[C@H]4C[C@@H]3CN4)n2)cc1Cl` [Example 775, (1R,4R)-2-(4-(3-chloro-4-fluorophenyl)-6-{4-[3-(trifluoromethyl)pyridin-2-yl]piperazin-1-yl}pyrimidin-2-yl)-2,5-diazabicyclo[2.2.1]heptane], under setting [2], the IC50 is at most 1 µM.

As for `COC1CN(c2nc(-c3ccc(F)c(Cl)c3)cc(N3CCN(c4ncccc4C(F)(F)F)CC3)n2)C1` [Example 776, 4-(3-chloro-4-fluorophenyl)-2-(3-methoxyazetidin-1-yl)-6-{4-[3-(trifluoromethyl)pyridin-2-yl]piperazin-1-yl}pyrimidine], the IC50 under setting [2] was at most 1 µM.

As to `CCCN1C[C@H]2C[C@@H]1CN2c1nc(-c2ccc(F)c(Cl)c2)cc(N2CCN(c3ncccc3C(F)(F)F)CC2)n1` [Example 777, (1R,4R)-2-(4-(3-chloro-4-fluorophenyl)-6-{4-[3-(trifluoromethyl)pyridin-2-yl]piperazin-1-yl}pyrimidin-2-yl)-5-propyl-2,5-diazabicyclo[2.2.1]heptane], the IC50 under setting [2] was at most 1 µM.

`CC1(O)CN(c2nc(-c3ccc(F)c(Cl)c3)cc(N3CCN(c4ncccc4C(F)(F)F)CC3)n2)C1` [Example 778, 1-(4-(3-chloro-4-fluorophenyl)-6-{4-[3-(trifluoromethyl)pyridin-2-yl]piperazin-1-yl}pyrimidin-2-yl)-3-methylazetidin-3-oI]: under setting [2], the IC50 was at most 1 µM.
